Source: the supplement of paper PMC11061612

Experiments:
[1] = system: SW1088 (Low Grade Glioma); experiment: Bliss excess, mean over the matrix (fraction); higher = more synergy
Summary of the method: (§1)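 After 24 hours at 37°C and 5% CO2 in 1536-well plates, cells in DMEM/F12 or RPMI plus 10% FBS received two-drug dose matrices for 72 hours. Viability came from CellTiter-Glo 2.0 luminescence and was scaled as inhibition, anchored at 0 by vehicle wells and at 1 by blank wells. Combination Emax is taken as the second-highest inhibition in the matrix, and Bliss excess as the observed combination effect less EA + EB − EA·EB, with EA and EB the single-agent effects.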

[2] = system: COR-L95 (Small Cell Lung Carcinoma); experiment: as above
Summary of the method: as §1

[3] = system: TE-5 (Esophageal Squamous Cell Carcinoma); experiment: as above
Summary of the method: as §1

[4] = system: DB (B-Cell Non-Hodgkin's Lymphoma); experiment: as above
Summary of the method: as §1

[5] = system: NALM-6 (B-Lymphoblastic Leukemia); experiment: as above
Summary of the method: as §1

[6] = system: MDA-MB-231 (Breast Carcinoma); experiment: as above
Summary of the method: as §1

[7] = system: ES7 (Ewing's Sarcoma); experiment: as above
Summary of the method: as §1

[8] = system: SW1783 (Low Grade Glioma); experiment: as above
Summary of the method: as §1

[9] = system: U-266 (Plasma Cell Myeloma); experiment: as above
Summary of the method: as §1

[10] = system: MDA-MB-157 (Breast Carcinoma); experiment: as above
Summary of the method: as §1

[11] = system: HT-29 (Colorectal Carcinoma); experiment: as above
Summary of the method: as §1

[12] = system: SW1990 (Pancreatic Carcinoma); experiment: as above
Summary of the method: as §1

[13] = system: NCI-H1299 (Non-Small Cell Lung Carcinoma); experiment: as above
Summary of the method: as §1

[14] = system: KATOIII (Gastric Carcinoma); experiment: combination Emax (second highest fraction inhibited in the dose matrix, 72 h); higher = more inhibition; extreme values may be limits of the assay
Summary of the method: as §1

[15] = system: COR-L95 (Small Cell Lung Carcinoma); experiment: as above
Summary of the method: as §1

[16] = system: TE-5 (Esophageal Squamous Cell Carcinoma); experiment: as above
Summary of the method: as §1

[17] = system: DSH1 (Bladder Carcinoma); experiment: as above
Summary of the method: as §1

[18] = system: MDA-MB-231 (Breast Carcinoma); experiment: as above
Summary of the method: as §1

[19] = system: HT-29 (Colorectal Carcinoma); experiment: as above
Summary of the method: as §1

[20] = system: G-292-Clone-A141B1 (Osteosarcoma); experiment: as above
Summary of the method: as §1
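For Bliss excess, mean over the matrix in this document: after 72 h of two-drug dosing.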

Row | Structure (SMILES) | Bliss excess [1] | Bliss excess [2] | Bliss excess [3] | Bliss excess [4] | Bliss excess [5] | Bliss excess [6] | Bliss excess [7] | Bliss excess [8] | Bliss excess [9] | Bliss excess [10] | Bliss excess [11] | Bliss excess [12] | Bliss excess [13] | combination Emax [14] | combination Emax [15] | combination Emax [16] | combination Emax [17] | combination Emax [18] | combination Emax [19] | combination Emax [20]
1 | O=C(c1cc(Cc2n[nH]c(=O)c3ccccc23)ccc1F)N1CCN(C(=O)C2CC2)CC1 [Olaparib] + Cc1c2c(nn1C)CSCc1cc(n(C)n1)CSc1cc(c3ccccc3c1)OCCCc1c(C(=O)O)n(C)c3c-2c(Cl)ccc13 [AZD5991] (first compound max 10 µM, 7x7, partner max 1 µM) | -0.0383 | -0.0514 | -0.0427 | 0.0141 | -0.039 | -0.0354 | 0.022 | -0.0388 | -0.0244 | -0.0291 | -0.0333 | -0.0296 | -0.0455 | 0.356 | 0.395 | 0.0405 | 0.692 | 0.161 | 0.0739 | 0.109
2 | N#Cc1cnc(Nc2cc(NC[C@H]3CNCCO3)c(C(F)(F)F)cn2)cn1 [SRA737] + Nc1ccn([C@@H]2O[C@H](CO)[C@@H](O)C2(F)F)c(=O)n1 [Gemcitabine] (first compound max 10 µM, 7x7, partner max 0.3 µM) | -0.0658 | -0.0067 | -0.0151 | 0.0174 | -0.0673 | 0.105 | 0.0172 | 0.0091 | -0.0101 | 0.0499 | 0.0573 | -0.0384 | 0.0831 | 0.557 | 0.391 | 0.633 | 0.972 | 0.838 | 0.853 | 0.317
3 | N#Cc1cnc(Nc2cc(NC[C@H]3CNCCO3)c(C(F)(F)F)cn2)cn1 [SRA737] + CCc1c2c(nc3ccc(O)cc13)-c1cc3c(c(=O)n1C2)COC(=O)[C@]3(O)CC [SN-38] (first compound max 10 µM, 7x7, partner max 0.3 µM) | -0.0339 | -0.0191 | -0.0682 | -0.0472 | -0.0083 | -0.0227 | -0.0138 | -0.038 | 0.0402 | 0.0125 | 0.0196 | -0.0824 | 0.0179 | 0.543 | 0.572 | 0.851 | 0.95 | 0.908 | 0.903 | 0.41
4 | CC1(C)CCC(CN2CCN(c3ccc(C(=O)NS(=O)(=O)c4ccc(NCC5CCOCC5)c([N+](=O)[O-])c4)c(Oc4cnc5[nH]ccc5c4)c3)CC2)=C(c2ccc(Cl)cc2)C1 [Venetoclax] + CS(=O)(=O)CCNCc1ccc(-c2ccc3ncnc(Nc4ccc(OCc5cccc(F)c5)c(Cl)c4)c3c2)o1 [Lapatinib] (first compound max 1 µM, 7x7, partner max 10 µM) | -0.0313 | -0.0566 | -0.0388 | 0.0803 | 0.0563 | -0.034 | 0.0086 | -0.0232 | -0.0555 | -0.0549 | -0.0493 | -0.0384 | -0.0402 | 0.291 | 0.677 | 0.218 | 0.747 | 0.17 | 0.731 | 0.113
5 | CN(CCO)CC[C@H](CSc1ccccc1)Nc1ccc(S(=O)(=O)NC(=O)c2ccc(N3CCC([C@@H](O)c4ccccc4-c4ccc(Cl)cc4)CC3)cc2)cc1S(=O)(=O)C(F)(F)F [AZD4320] + CS(=O)(=O)CCNCc1ccc(-c2ccc3ncnc(Nc4ccc(OCc5cccc(F)c5)c(Cl)c4)c3c2)o1 [Lapatinib] (first compound max 1 µM, 7x7, partner max 10 µM) | -0.0544 | 0.0386 | 0.0542 | 0.0048 | -0.0112 | 0.0241 | 0.0769 | 0.0765 | -0.052 | 0.019 | -0.0113 | -0.0093 | -0.0664 | 0.586 | 1 | 0.888 | 1 | 0.951 | 0.928 | 0.949
6 | CN(CCO)CC[C@H](CSc1ccccc1)Nc1ccc(S(=O)(=O)NC(=O)c2ccc(N3CCC([C@@H](O)c4ccccc4-c4ccc(Cl)cc4)CC3)cc2)cc1S(=O)(=O)C(F)(F)F [AZD4320] + Nc1ccn([C@@H]2O[C@H](CO)[C@@H](O)C2(F)F)c(=O)n1 [Gemcitabine] (first compound max 1 µM, 7x7, partner max 0.3 µM) | -0.0628 | 0.0634 | 0.0559 | -0.029 | -0.0024 | -0.0245 | -0.0271 | 0.0546 | 0.0421 | -0.0349 | 0.0191 | 0.0103 | -0.0261 | 0.473 | 1 | 0.875 | 0.965 | 0.662 | 0.733 | 0.511
7 | C=CCn1c(=O)c2cnc(Nc3ccc(N4CCN(C)CC4)cc3)nc2n1-c1cccc(C(C)(C)O)n1 [AZD1775] + Nc1ccn([C@@H]2O[C@H](CO)[C@@H](O)C2(F)F)c(=O)n1 [Gemcitabine] (first compound max 1 µM, partner max 0.3 µM) | -0.0468 | -0.0611 | -0.0678 | – | -0.0093 | 0.0686 | 0.0319 | 0.0121 | -0.0121 | 0.106 | 0.0422 | -0.0395 | 0.0513 | 0.506 | 0.411 | 0.568 | 0.923 | 0.78 | 0.884 | 0.317
8 | C[C@@H](Oc1cc(-c2cnn(C3CCNCC3)c2)cnc1N)c1c(Cl)ccc(F)c1Cl [Crizotinib] + CC1=C(C(=CC=C1)Cl)NC(=O)C2=CN=C(S2)NC3=CC(=NC(=N3)C)N4CCN(CC4)CCO [Dasatinib] (first compound max 10 µM, 7x7, partner max 2 µM) | 0.016 | -0.0662 | 0.0287 | -0.0805 | 0.022 | 0.0116 | 0.0273 | 0.103 | -0.0102 | -0.0052 | -0.0002 | -0.0312 | 0.123 | 0.731 | 0.354 | 0.56 | 0.437 | 0.94 | 0.881 | 0.762
9 | O=C(c1cc(Cc2n[nH]c(=O)c3ccccc23)ccc1F)N1CCN(C(=O)C2CC2)CC1 [Olaparib] + CC1(C)CCC(CN2CCN(c3ccc(C(=O)NS(=O)(=O)c4ccc(NCC5CCOCC5)c([N+](=O)[O-])c4)c(Oc4cnc5[nH]ccc5c4)c3)CC2)=C(c2ccc(Cl)cc2)C1 [Venetoclax] (first compound max 10 µM, 7x7, partner max 1 µM) | -0.0611 | 0.0791 | -0.0458 | 0.0522 | 0.104 | 0.0001 | 0.0282 | -0.0349 | 0.0388 | -0.0406 | -0.0304 | -0.0509 | -0.0527 | 0.412 | 0.846 | 0.0752 | 0.272 | 0.239 | 0.115 | 0.0374
10 | Cc1c2c(nn1C)CSCc1cc(n(C)n1)CSc1cc(c3ccccc3c1)OCCCc1c(C(=O)O)n(C)c3c-2c(Cl)ccc13 [AZD5991] + CS(=O)(=O)CCNCc1ccc(-c2ccc3ncnc(Nc4ccc(OCc5cccc(F)c5)c(Cl)c4)c3c2)o1 [Lapatinib] (first compound max 1 µM, 7x7, partner max 10 µM) | -0.0137 | -0.0199 | 0.0198 | 0.0597 | -0.101 | -0.0852 | 0.0148 | -0.0106 | -0.0501 | 0.0108 | -0.0216 | 0.0149 | -0.0243 | 0.415 | 0.177 | 0.308 | 0.991 | 0.263 | 0.783 | 0.264
11 | N#Cc1cnc(Nc2cc(NC[C@H]3CNCCO3)c(C(F)(F)F)cn2)cn1 [SRA737] + C=CCn1c(=O)c2cnc(Nc3ccc(N4CCN(C)CC4)cc3)nc2n1-c1cccc(C(C)(C)O)n1 [AZD1775] (first compound max 10 µM, partner max 1 µM) | 0.0681 | 0.0077 | 0.0481 | 0.0626 | 0.11 | 0.0607 | 0.102 | 0.0153 | 0.0474 | 0.119 | 0.0394 | -0.0149 | 0.0448 | 0.392 | 0.299 | 0.482 | 0.682 | 0.807 | 0.827 | 0.239
12 | Cc1c2c(nn1C)CSCc1cc(n(C)n1)CSc1cc(c3ccccc3c1)OCCCc1c(C(=O)O)n(C)c3c-2c(Cl)ccc13 [AZD5991] + CC(=O)O[C@H]1C(=O)[C@@]2(C)[C@H]([C@H](OC(=O)c3ccccc3)[C@]3(O)C[C@H](OC(=O)[C@H](O)[C@@H](NC(=O)c4ccccc4)c4ccccc4)C(C)=C1C3(C)C)[C@]1(OC(C)=O)CO[C@@H]1C[C@@H]2O [Paclitaxel] (first compound max 1 µM, 7x7, partner max 3 µM) | -0.0192 | -0.0187 | -0.0112 | 0.0342 | -0.0432 | 0.0049 | -0.06 | -0.0242 | -0.0074 | 0.078 | -0.1 | -0.0231 | -0.0453 | 0.283 | 0.399 | 0.699 | 0.963 | 0.498 | 0.77 | 0.398
13 | C[C@@H]1COCCN1c1cc(C2([S@](C)(=N)=O)CC2)nc(-c2ccnc3[nH]ccc23)n1 [AZD6738] + C1CC(C1)(C(=O)[O-])C(=O)[O-].N.N.[Pt+2] [Carboplatin] (first compound max 10 µM, 7x7, partner max 10 µM) | -0.0426 | -0.106 | -0.0163 | -0.0019 | -0.0122 | -0.0294 | 0.0089 | -0.0337 | -0.0751 | -0.0061 | -0.0194 | -0.0997 | -0.0401 | 0.424 | – | 0.541 | 0.725 | 0.576 | 0.766 | 0.328
